In patent publication US9139577B2, “Sulfoximine substituted quinazolines for pharmaceutical compositions” (Boehringer Ingelheim International GmbH, priority 2013, dated 2015):

These compounds were tested against MNK2a (Homo sapiens (Human), UniProt Q9HBH9) (assay: MNK2a in vitro kinase assay (Assay 2), ADP-Glo). Settings: read-out: MNK2 IC50.
Format: biochemical
Protocol: B. MNK2a In vitro Kinase Assay (Assay 2)
ASSAY SETUP: The inhibition of kinase activity of MNK2a was assessed using pre-activated GST-MNK2a. The white, 384-well OptiPlate F plates were purchased from PerkinElmer. The ADP-Glo Kinase Assay (including ultra pure ATP) was purchased from Promega (V9103). Activated MNK2a was obtained as described in WO2011/104340. […] ID No. 5 of WO 2011/104340 by the C-terminal —CONH2 group, was purchased from Thermo Fisher Scientific. All other materials were of highest grade commercially available. Compounds are tested in either serial dilutions or single dose concentrations. The compound stock solutions are 10 mM in 100% DMSO The serial compound dilutions are prepared in 100% DMSO followed by 1:27.3 intermediate dilution in assay buffer. The final DMSO concentration in assay will be <3%. In the 384-well plates 3 μl of test compound from the intermediate dilution is mixed with 4 μl of the activated MNK2 enzyme (final concentration of 10 nM) and 4 μl of the peptide (final concentration of 25 μM)/ultra pure ATP (final concentration of 20 μM), all dissolved in assay buffer. This step is followed by an incubation time of 90 min, then 10 μl of ADP Glo reagent are added, followed by 40 min of incubation. Then 20 μl of kinase detection reagent are admixed. The plates are sealed and after an incubation period of 30 min, the luminescence signal is measured in an Envision reader to determine the amount of produced ADP. All incubation steps are performed at room temperature. The assay buffer consists of 20 mM HEPES, 2 mM DTT, 0.01% BSA, 20 mM MgCl2 and 0.1% Pluronic F-127.
The luminescent signal generated is proportional to the ADP concentration produced and is correlated with activated MNK2 activity. The analysis of the data is performed by the calculation of the percentage of ATP consumption of activated MNK2 in the presence of the test compound compared to the consumption of ATP in the presence of activated MNK2 without compound. (RLU(sample)−RLU(low control))*100/(RLU(high value)−RLU(low control)) [RLU=relative luminescence units]
[…] values based on dose response curves are calculated with the AssayExplorer software.

MNK2a, sequence (Q9HBH9 whole entry): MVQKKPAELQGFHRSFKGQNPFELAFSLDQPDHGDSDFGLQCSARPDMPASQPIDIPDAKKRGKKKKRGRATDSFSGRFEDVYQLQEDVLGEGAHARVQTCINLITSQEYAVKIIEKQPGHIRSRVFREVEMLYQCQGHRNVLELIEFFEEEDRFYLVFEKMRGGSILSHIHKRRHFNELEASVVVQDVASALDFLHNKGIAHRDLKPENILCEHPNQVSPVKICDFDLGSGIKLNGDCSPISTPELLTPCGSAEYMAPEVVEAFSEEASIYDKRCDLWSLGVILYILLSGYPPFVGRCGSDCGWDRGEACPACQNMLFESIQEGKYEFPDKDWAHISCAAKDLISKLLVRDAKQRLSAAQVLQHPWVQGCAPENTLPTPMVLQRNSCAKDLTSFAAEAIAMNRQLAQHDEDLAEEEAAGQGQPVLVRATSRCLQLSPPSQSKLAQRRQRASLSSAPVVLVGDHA

Going from Cc1cc(N=S(C)(C)=O)cc2ncnc(Nc3ccc(F)cc3O[C@H](CO)C(N)=O)c12 [Example 7.012] to CCC(Oc1cc(F)ccc1Nc1ncnc2cc(N=S(C)(C)=O)cc(C)c12)C(=O)OC (stereo not shown) [Example 3.017], the IC50 rises from 46 nM to 138 nM (3-fold). The first is the more potent here.

First: Cc1cc(N=S(C)(C)=O)cc2ncnc(Nc3ccc(F)cc3O[C@H](C)C(=O)NCC(F)F)c12 [Example 4.036]
Second: Cc1cc(N=S(C)(C)=O)cc2ncnc(Nc3ccc(F)cc3O[C@H](C)C(=O)NC(CF)CF)c12 [Example 4.101]
The IC50 of the first is 3-fold lower: 1 nM for the first, 3 nM for the second. The first is the more potent here.

Going from Cc1cc(N=S2(=O)CCC2)cc2ncnc(Nc3ccc(F)cc3O[C@H](C)C(=O)NC(C)C#N)c12 (stereo partly shown) [Example 4.132] to CC(C#N)NC(=O)[C@@H](C)Oc1cc(F)ccc1Nc1ncnc2cc(N=S3(=O)CCC3)cc(F)c12 (stereo partly shown) [Example 4.099], the IC50 rises from 1 nM to 2 nM (2-fold). The first is the more potent here.

Compared with Cc1cc(N=S2(=O)CCC2)cc2ncnc(Nc3ccc(Cl)nc3O[C@H](C)C(=O)N[C@@H](C)C#N)c12 [Example 4.140], C[C@@H](C#N)NC(=O)[C@@H](C)Oc1cc(Cl)ccc1Nc1ncnc2cc(N=S3(=O)CCC3)cc(F)c12 [Example 4.077] is 2-fold higher in IC50: 1 nM for the first, 2 nM for the second.

Cc1cc(N=S2(=O)CCC(O)C2)cc2ncnc(Nc3ccc(F)cc3O[C@H](C)C(=O)NCC(F)(F)F)c12 (stereo partly shown) [Example 2.023] and Cc1cc(N=S2(=O)CCC(C)C2)cc2ncnc(Nc3ccc(F)cc3O[C@H](C)C(=O)NCC(F)(F)F)c12 (stereo partly shown) [Example 2.035] are the same in IC50: 2 nM for the first, 2 nM for the second.

Going from C[C@H](NC(=O)[C@@H](C)Oc1cc(F)ccc1Nc1ncnc2cc(N=S(C)(C)=O)cc(Cl)c12)C(F)(F)F [Example 4.135] to COc1cc(N=S(C)(C)=O)cc2ncnc(Nc3ccc(F)cc3O[C@H](C)C(=O)NCC(F)(F)F)c12 [Example 3.040], the IC50 rises from 2 nM to 6 nM (3-fold).

Compared with Cc1cc(N=S(C)(C)=O)cc2ncnc(Nc3ccc(F)cc3OC(C)Cn3cccn3)c12 (stereo not shown) [Example 3.034], Cc1cc(N=S(C)(C)=O)cc2ncnc(Nc3ccc(F)cc3OC(C)C(F)(F)F)c12 (racemic) [Example 1.013] is 29-fold lower in IC50: 58 nM for the first, 2 nM for the second. The second is the more potent here.

Cc1cc(N=S2(=O)CCC2)cc2ncnc(Nc3ccc(F)cc3O[C@H](C)C(=O)NCCF)c12 [Example 4.107] and Cc1cc(N=S2(=O)CCCC2)cc2ncnc(Nc3ccc(F)cc3O[C@H](C)C(=O)NCCF)c12 [Example 4.105] are the same in IC50: 2 nM for the first, 2 nM for the second.

Going from C[C@@H](Oc1cc(F)ccc1Nc1ncnc2cc(N=S(C)(C)=O)cc(C(F)(F)F)c12)C(=O)NCC(F)(F)F [Example 4.086] to Cc1cc(N=S(C)(C)=O)cc2ncnc(Nc3ccc(F)cc3O[C@H](CF)C(=O)NCC(F)(F)F)c12 [Example 7.013], the IC50 rises from 2 nM to 4 nM (2-fold). The first is the more potent here.

Cc1cc(N=S2(=O)CC3(COC3)C2)cc2ncnc(Nc3ccc(F)cc3O[C@H](C)C(=O)NCC(F)(F)F)c12 [Example 2.038] and Cc1cc(N=S2(=O)CC[C@@H](N)C2)cc2ncnc(Nc3ccc(F)cc3O[C@H](C)C(=O)NCC(F)(F)F)c12 (stereo partly shown) [Example 2.020] are the same in IC50: 3 nM for the first, 3 nM for the second.

Going from Cc1cc(N=S(C)(C)=O)cc2ncnc(Nc3ccc(F)cc3O[C@H](C)C(=O)N3CCCC3)c12 [Example 4.016] to Cc1cc(N=S2(=O)CCCC2)cc2ncnc(Nc3ccc(F)cc3O[C@H](C)C(=O)N3CCCC3)c12 [Example 4.006], the IC50 falls from 20 nM to 5 nM (4-fold). The second is the more potent here.

C[C@H](NC(=O)[C@@H](C)Oc1cc(F)ccc1Nc1ncnc2cc(N=S3(=O)CCC3)cc(C(F)F)c12)C(F)(F)F [Example 4.143] and C[C@@H](Oc1cc(F)ccc1Nc1ncnc2cc(N=S3(=O)CCC3)cc(C(F)F)c12)C(=O)NCC(F)(F)F [Example 4.110] are the same in IC50: 2 nM for the first, 2 nM for the second.

First: Cc1cc(N=S2(=O)CCC2)cc2ncnc(Nc3ccc(F)cc3O[C@H](C)C(=O)N(CC(F)(F)F)CC(F)(F)F)c12 [Example 3.052]
Second: Cc1cc(N=S2(=O)CCC2)cc2ncnc(Nc3ccc(F)cc3O[C@H](C)C(=O)NC(C(F)(F)F)C(F)(F)F)c12 [Example 2.041]
The IC50 of the first is 3-fold higher: 3 nM for the first, 1 nM for the second. The second is the more potent here.

Compared with Cc1cc(N=S(C)(C)=O)cc2ncnc(Nc3ccc(F)cc3O[C@H](C)C(=O)N(CC(F)F)CC(F)F)c12 [Example 3.053], CC#CCNC(=O)[C@@H](C)Oc1cc(F)ccc1Nc1ncnc2cc(N=S(C)(C)=O)cc(C)c12 [Example 4.066] is 4.5-fold higher in IC50: 2 nM for the first, 9 nM for the second. The first is the more potent here.

First: CCN(CC)C(=O)[C@@H](C)Oc1cc(F)ccc1Nc1ncnc2cc(N=S3(=O)CCCC3)cc(C)c12 [Example 4.025]
Second: Cc1cc(N=S2(=O)CCCC2)cc2ncnc(Nc3ccc(F)cc3O[C@H](C)C(=O)N3CCC3)c12 [Example 4.070]
The IC50 of the first is 2.3-fold lower: 3 nM for the first, 7 nM for the second.

Going from CC(NC(=O)[C@@H](C)Oc1cc(F)ccc1Nc1ncnc2cc(N=S3(=O)CCC3)cc(C(F)F)c12)C(F)F (stereo partly shown) [Example 4.146] to C[C@@H](C#N)NC(=O)[C@@H](C)Oc1cc(F)ccc1Nc1ncnc2cc(N=S3(=O)CCC3)cc(F)c12 [Example 4.106], the IC50 falls from 4 nM to 2 nM (2-fold). The second is the more potent here.

Going from Cc1cc(N=S2(=O)CCC2)cc2ncnc(Nc3ccc(Cl)cc3O[C@H](C)C(=O)N[C@H](C)C(F)(F)F)c12 [Example 4.145] to Cc1cc(N=S2(=O)CCC2)cc2ncnc(Nc3ccc(Cl)cc3O[C@H](C)C(=O)NCC(F)(F)F)c12 [Example 4.122], the IC50 falls from 2 nM to 1 nM (2-fold). The second is the more potent here.

Going from Cc1cc(N=S2(=O)CCCC2)cc2ncnc(Nc3ccc(F)cc3O[C@H](C)C(=O)N3CC[S+]([O-])CC3)c12 [Example 4.004] to Cc1cc(N=S2(=O)CCC2)cc2ncnc(Nc3ccc(F)cc3O[C@H](C)C(=O)NCC#N)c12 [Example 4.103], the IC50 falls from 6 nM to 1 nM (6-fold).

First: C[C@@H](Oc1cc(F)ccc1Nc1ncnc2cc(N=S3(=O)CCC3)cc(F)c12)C(=O)NCC#N [Example 4.097]
Second: C[C@@H](Oc1cc(F)ccc1Nc1ncnc2cc(N=S3(=O)CCCC3)cc(F)c12)C(=O)NCC#N [Example 2.033]
The IC50 of the first is 4-fold lower: 1 nM for the first, 4 nM for the second. The first is the more potent here.

Compared with CC(Oc1ncccc1Nc1ncnc2cc(N=S(C)(C)=O)cc(F)c12)C(F)(F)F (stereo not shown) [Example 1.007], Cc1cc(N=S(C)(C)=O)cc2ncnc(Nc3ccc(C#N)cc3OC(C)C(F)(F)F)c12 (stereo not shown) [Example 1.001] is 2.1-fold higher in IC50: 8 nM for the first, 17 nM for the second.

Compared with Cc1cc(N=S2(=O)CC3(COC3)C2)cc2ncnc(Nc3ccc(Cl)cc3O[C@H](C)C(=O)N[C@@H](C)C(F)(F)F)c12 [Example 2.045], COc1cc(N=S2(=O)CCC2)cc2ncnc(Nc3ccc(F)cc3O[C@H](C)C(=O)N[C@@H](C)C(F)(F)F)c12 [Example 4.098] is 4-fold higher in IC50: 1 nM for the first, 4 nM for the second.

Compared with C[C@@H](Oc1cc(F)ccc1Nc1ncnc2cc(N=S3(=O)CCC3)cc(F)c12)C(=O)NCCF [Example 4.117], Cc1cc(N=S2(=O)CCC2)cc2ncnc(Nc3ccc(F)cc3O[C@H](C)C(=O)NCCCF)c12 [Example 4.144] is 1.5-fold lower in IC50: 3 nM for the first, 2 nM for the second.

Going from C[C@@H](Oc1cc(F)ccc1Nc1ncnc2cc(N=S3(=O)CC(C)(C)C3)cc(F)c12)C(=O)NCC#N [Example 2.026] to COc1cc(N=S2(=O)CCC2)cc2ncnc(Nc3ccc(F)cc3O[C@H](C)C(=O)NCC(F)F)c12 [Example 6.002], the IC50 rises from 1 nM to 2 nM (2-fold). The first is the more potent here.

First: Cc1cc(N=S(C)(C)=O)cc2ncnc(Nc3ccc(F)cc3O[C@H](CO)C(=O)NCC(F)(F)F)c12 [Example 7.011]
Second: Cc1cc(N=S(C)(C)=O)cc2ncnc(Nc3ccc(Cl)cc3O[C@H](C)C(=O)NCC(F)(F)F)c12 [Example 4.092]
The IC50 of the first is 1.5-fold higher: 3 nM for the first, 2 nM for the second.

First: Cc1cc(N=S2(=O)CCC2)cc2ncnc(Nc3ccc(F)cc3O[C@H](CO)C(F)(F)F)c12 [Example 2.043]
Second: CCOc1cc(N=S2(=O)CCC2)cc2ncnc(Nc3ccc(F)cc3O[C@H](C)C(=O)NCC(F)(F)F)c12 [Example 6.003]
The IC50 of the first is 2-fold lower: 2 nM for the first, 4 nM for the second.

Compared with C[C@@H](C#N)NC(=O)[C@@H](C)Oc1cc(F)ccc1Nc1ncnc2cc(N=S3(=O)CCC3)cc(Cl)c12 [Example 4.137], CCOc1cc(N=S2(=O)CCC2)cc2ncnc(Nc3ccc(Cl)cc3O[C@H](C)C(=O)N[C@@H](C)C#N)c12 [Example 4.095] is 2-fold higher in IC50: 1 nM for the first, 2 nM for the second. The first is the more potent here.

Compared with COC(=O)N1CCS(=O)(=Nc2cc(C)c3c(Nc4ccc(F)cc4O[C@H](C)c4cc(C)no4)ncnc3c2)CC1 [Example 5.013], Cc1cc(C(Oc2cc(F)ccc2Nc2ncnc3cc(N=S(C)(C)=O)cc(C)c23)C(F)(F)F)on1 (stereo not shown) [Example 1.010] is 8.5-fold higher in IC50: 2 nM for the first, 17 nM for the second. The first is the more potent here.

Cc1cc(N=S(C)(=O)C2CCOCC2)cc2ncnc(Nc3ccc(F)cc3O[C@H](C)C(=O)NCC(F)(F)F)c12 (stereo partly shown) [Example 2.029] and Cc1cc(N=S(C)(=O)C2CCNC2)cc2ncnc(Nc3ccc(F)cc3O[C@H](C)C(=O)NCC(F)(F)F)c12 (stereo partly shown) [Example 2.028] are within 1.5-fold of each other in IC50: 4 nM for the first, 3 nM for the second.

First: Cc1cc(N=S(C)(C)=O)cc2ncnc(Nc3ccc(F)cc3OCC3CNC(=O)C3)c12 (stereo not shown) [Example 3.037]
Second: Cc1cc(N=S(C)(C)=O)cc2ncnc(Nc3ccc(F)cc3OC(C)C3CCCO3)c12 (stereo not shown) [Example 3.010]
The IC50 of the first is 7.7-fold lower: 3 nM for the first, 23 nM for the second.
